Source: the supplement of paper PMC10307832

Assays:
Assay in all cases: relative viability (nuclei count vs DMSO), 5 days (fraction); higher = more cells survive
Ispinesib + Vorinostat = compound: Cc1ccc(C(=O)N(CCCN)[C@@H](c2nc3cc(Cl)ccc3c(=O)n2Cc2ccccc2)C(C)C)cc1 [Ispinesib] + O=C(CCCCCCC(=O)Nc1ccccc1)NO [Vorinostat] (partner 1 µM)
How it was run: (§1)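 For relative viability, nuclei counts in treated wells were divided by those in vehicle wells. Lung cancer cell lines had been pin-tool dosed in 1536-well plates the day after seeding and cultured for 5 days, then fixed and stained in one step (final 0.05% Triton X-100, 1% formaldehyde, 1 ug/ml Hoechst) and imaged at 4×. Doses were one drug alone or a fixed anchor-drug dose plus five library-drug doses (not always all listed) in √10 steps, and values are duplicate-plate medians.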

Ispinesib + Phenformin = compound: Cc1ccc(C(=O)N(CCCN)[C@@H](c2nc3cc(Cl)ccc3c(=O)n2Cc2ccccc2)C(C)C)cc1 [Ispinesib] + N=C(N)NC(=N)NCCc1ccccc1 [Phenformin] (partner 250 µM)
How it was run: as §1

Ispinesib + Foretinib = compound: Cc1ccc(C(=O)N(CCCN)[C@@H](c2nc3cc(Cl)ccc3c(=O)n2Cc2ccccc2)C(C)C)cc1 [Ispinesib] + COc1cc2c(Oc3ccc(NC(=O)C4(C(=O)Nc5ccc(F)cc5)CC4)cc3F)ccnc2cc1OCCCN1CCOCC1 [Foretinib] (partner 0.25 µM)
How it was run: as §1

Linsitinib + Luminespib = compound: C[C@]1(O)C[C@@H](c2nc(-c3ccc4ccc(-c5ccccc5)nc4c3)c3c(N)nccn32)C1 [Linsitinib] + CCNC(=O)c1noc(-c2cc(C(C)C)c(O)cc2O)c1-c1ccc(CN2CCOCC2)cc1 [Luminespib] (partner 0.01 µM)
How it was run: as §1

Cell Line	relative viability (Ispinesib + Vorinostat; first compound 0.001 µM)	relative viability (Ispinesib + Vorinostat; first compound 0.003162 µM)	relative viability (Ispinesib + Vorinostat; first compound 0.01 µM)	relative viability (Ispinesib + Vorinostat; first compound 0.03162 µM)	relative viability (Ispinesib + Vorinostat; first compound 0.1 µM)	relative viability (Ispinesib + Phenformin; first compound 0.001 µM)	relative viability (Ispinesib + Phenformin; first compound 0.003162 µM)	relative viability (Ispinesib + Phenformin; first compound 0.01 µM)	relative viability (Ispinesib + Phenformin; first compound 0.03162 µM)	relative viability (Ispinesib + Phenformin; first compound 0.1 µM)	relative viability (Ispinesib + Foretinib; first compound 0.001 µM)	relative viability (Ispinesib + Foretinib; first compound 0.003162 µM)	relative viability (Ispinesib + Foretinib; first compound 0.01 µM)	relative viability (Ispinesib + Foretinib; first compound 0.03162 µM)	relative viability (Ispinesib + Foretinib; first compound 0.1 µM)	relative viability (Linsitinib + Luminespib; first compound 0.01 µM)	relative viability (Linsitinib + Luminespib; first compound 0.03162 µM)	relative viability (Linsitinib + Luminespib; first compound 0.1 µM)	relative viability (Linsitinib + Luminespib; first compound 1 µM)	relative viability (Linsitinib + Luminespib; first compound 0.3162 µM)
HOP-62	0.685	0.631	0.949	0.667	0.25	0.774	0.728	0.709	0.632	0.225	1.11	1.32	1.35	1.11	0.601	0.939	0.964	0.923	0.694	
NCI-H1793	0.702	0.881	0.925	0.38	0.318	0.375	0.357	0.448	0.278	0.133	0.711	0.585	0.958	0.637	0.194	0.166	0.205	0.164	0.178	0.149
NCI-H1355	0.673	0.675	0.758	0.458	0.286	0.422	0.465	0.495	0.291	0.315	0.991	1.01	1.24	0.95	0.444	0.761	0.685	0.618	0.587	0.616
COR-L23	0.422	0.448	0.342	0.14	0.175	0.437	0.444	0.448	0.123	0.133	0.959	1.03	1.16	0.412	0.146	0.678	0.48	0.783	0.583	0.555
A-427	0.878	0.953	0.981	0.385	0.217	0.377	0.415	0.333	0.168	0.158	1.06	1.22	1.16	1.07	0.762	0.757	0.954	1.01	0.993	
NCI-H520	0.776	0.71	0.662	0.268	0.234	0.535	0.571	0.382	0.251	0.222	0.906	0.832	0.866	0.379	0.306	0.21	0.195	0.241	0.208	
LXF-289	0.758	0.772	0.837	0.478	0.217	0.515	0.527	0.541	0.392	0.0531	0.911	0.978	1.09	0.894	0.895	0.759	0.669	0.729	0.544	
NCI-H2087	0.963	0.45	0.937	0.995	0.141	0.492	0.473	0.441	0.32	0.134	1.17	1.14	1.45	0.901	0.209	0.167	0.169	0.132	0.142	0.15
CAL-12T	0.839	0.914	0.583	0.585	0.24	0.515	0.57	0.592	0.139	0.172	1.2	1.06	1.31	0.938	0.197	0.469	0.303	0.515	0.355	0.303
NCI-H596	0.58	0.741	0.642	0.609	0.35	0.676	0.791	0.765	0.791	0.315	0.87	0.859	0.791	0.795	0.434	1.16	0.991	1.2	0.867	0.862
PC-14	0.773	0.569	0.343	0.103	0.134	0.607	0.755	0.338	0.122	0.0821	1.02	1.09	1.23	0.917	0.186	0.217	0.112	0.18	0.103	0.196
NCI-H1915	0.532	0.539	0.525	0.238	0.101	0.413	0.372	0.392	0.165	0.176	1.15	1.16	1.33	1.03	0.425	0.796	0.61	0.835	0.797	0.707
NCI-H647	0.637	0.57	0.497	0.333	0.141	0.609	0.476	0.52	0.0907	0.126	1.26	1.32	1.41	0.703	0.191	0.169	0.117	0.524	0.184	
NCI-H322M	0.96	0.95	0.995	0.659	0.505	0.874	0.891	0.82	0.39	0.389	1.09	0.994	0.957	0.498	0.43	0.946	0.444	0.856	0.658	0.698
NCI-H2170	0.923	0.77	0.969	0.502	0.199	0.429	0.462	0.401	0.281	0.178	0.997	1.03	0.96	0.806	0.359	0.704	0.761	0.515	0.687	0.557
BEN	0.538	0.676	0.642	0.478	0.374	0.243	0.27	0.252	0.27	0.203	0.674	0.96	0.686	0.342	0.201	0.411	0.503	0.3	0.383	
